Data on 24 compounds can be found in PubChem BioAssay AID330 (DTP/NCI, 2004).

For the experiment, the system named is P388 leukemia ip, CD2F1 mice, survival T/C. The experiment in a line: NCI In Vivo Anticancer Drug Screen. Data for tumor model P388 Leukemia (intraperitoneal) in CD2F1 (CDF1) mice. The conditions noted are these: endpoint: median survival time, higher = longer survival. An outline of the steps: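 Mice carrying the transplanted tumor received test compound or vehicle. Survival was recorded in each group, and the value is the treated-group measurement divided by that of the vehicle-treated control group.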

The mark [1] stands for this setting: dose: 100.0 mg/kg/injection, schedule: Q01DX005 (ip), vehicle: saline with Tween-80.
Where [2] appears, read: dose: 200.0 mg/kg/injection, schedule: Q01DX005 (ip), vehicle: saline with Tween-80.
[3] abbreviates: dose: 60.0 mg/kg/injection, schedule: Q01DX005 (ip), vehicle: saline with Tween-80.
[4] abbreviates: dose: 120.0 mg/kg/injection, schedule: Q01DX005 (ip), vehicle: saline with Tween-80.
[5] abbreviates: dose: 240.0 mg/kg/injection, schedule: Q01DX005 (ip), vehicle: saline with Tween-80.
The mark [6] stands for this setting: dose: 6.25 mg/kg/injection, schedule: Q01DX009 (ip), vehicle: water.
Where [7] appears, read: dose: 12.5 mg/kg/injection, schedule: Q01DX009 (ip), vehicle: water.
[8] abbreviates: dose: 50.0 mg/kg/injection, schedule: Q01DX009 (ip), vehicle: saline with Tween-80.
Where [9] appears, read: dose: 100.0 mg/kg/injection, schedule: Q01DX009 (ip), vehicle: saline with Tween-80.
[10] abbreviates: dose: 200.0 mg/kg/injection, schedule: Q01DX009 (ip), vehicle: saline with Tween-80.
The mark [11] stands for this setting: dose: 25.0 mg/kg/injection, schedule: Q01DX009 (ip), vehicle: saline with Tween-80.
[12] abbreviates: dose: 50.0 mg/kg/injection, schedule: Q01DX005 (ip), vehicle: Klucel (hydroxypropylcellulose) (HPC).
Setting [13] is: dose: 100.0 mg/kg/injection, schedule: Q01DX005 (ip), vehicle: Klucel (hydroxypropylcellulose) (HPC).

Several values for one entry are separate records, joined by “and”; a condition that tells them apart may be missing. Identical values can stand only once. Inconclusive results and toxic doses are left out.

As to `O=[N+]([O-])c1ccccc1N=Nc1c(-c2ccccc2)nn(C(=S)N2CCOCC2)c1-c1ccccc1`, the T/C by setting is: (dose: 1.5 mg/kg/injection, schedule: Q01DX005 (ip), vehicle: saline with Tween-80) 102 % of control; (dose: 3.0 mg/kg/injection, schedule: Q01DX005 (ip), vehicle: saline with Tween-80) 96 % of control; (dose: 6.0 mg/kg/injection, schedule: Q01DX005 (ip), vehicle: saline with Tween-80) 87 % of control; (dose: 6.25 mg/kg/injection, schedule: Q01DX005 (ip), vehicle: saline with Tween-80) 92 % of control; under setting [1], 86 % of control; under setting [2], 95 % of control.

On to `CC1OC1C(=O)C1(O)C(C)C(O)C23OC2(C(O)c2c(O)cccc2C3=O)C1O` (stereo unspecified), for which the T/C was 104 % of control and 118 % of control (dose: 1.0 mg/kg/injection, schedule: Q01DX009 (ip), vehicle: Klucel (hydroxypropylcellulose) (HPC)); 154 % of control (dose: 2.0 mg/kg/injection, schedule: Q01DX009 (ip), vehicle: Klucel (hydroxypropylcellulose) (HPC)); 121 % of control (dose: 4.0 mg/kg/injection, schedule: Q01DX009 (ip), vehicle: Klucel (hydroxypropylcellulose) (HPC)).

With `CC(=O)Nc1ccc(S(=O)(=O)NC2C(O)OC(CO)C(O)C2O)cc1` (stereo unspecified), the T/C (dose: 50.0 mg/kg/injection, schedule: Q01DX005 (ip), vehicle: saline) was 95 % of control; the T/C (dose: 100.0 mg/kg/injection, schedule: Q01DX005 (ip), vehicle: saline) is 105 % of control; the T/C (dose: 200.0 mg/kg/injection, schedule: Q01DX005 (ip), vehicle: saline) is 97 % of control.

Turning to `CC(=O)CC(C)c1ccc(C(C)CC(C)=O)o1` (stereo unspecified), the T/C by setting is: under setting [3], 104 % of control; under setting [4], 106 % of control; under setting [5], 104 % of control.

On to `O=NNc1ccc(SSc2ccc(NN=O)cc2)cc1`, for which the T/C (dose: 1.56 mg/kg/injection, schedule: Q01DX009 (ip), vehicle: water) is 106 % of control; the T/C (dose: 3.12 mg/kg/injection, schedule: Q01DX009 (ip), vehicle: water) is 100 % of control and 124 % of control; the T/C under setting [6] is 121 % of control; the T/C under setting [7] is 123 % of control.

With `CCCCc1[nH]nc(-c2n[nH]c(CCCC)c2C)c1C`, the T/C is, setting by setting: under setting [3], 95 % of control; under setting [4], 100 % of control; under setting [5], 108 % of control.

`CC(c1ccccc1)C1CCN(C)CC1` (stereo unspecified): the T/C is 99 % of control (dose: 12.5 mg/kg/injection, schedule: Q04DX002 (ip), vehicle: saline) and 100 % of control (dose: 25.0 mg/kg/injection, schedule: Q04DX002 (ip), vehicle: saline).

As to `CC(=O)c1ccccc1N=Nc1ccc(N(CCCl)CCCl)cc1`, the T/C under setting [8] was 108 % of control, the T/C under setting [9] was 106 % of control and the T/C under setting [10] is 112 % of control.

`CC1(C)C(N)C(C)(C)C1N` (stereo unspecified): the T/C (dose: 50.0 mg/kg/injection, schedule: Q01DX009 (ip), vehicle: saline) is 94 % of control; the T/C (dose: 100.0 mg/kg/injection, schedule: Q01DX009 (ip), vehicle: saline) was 97 % of control; the T/C (dose: 200.0 mg/kg/injection, schedule: Q01DX009 (ip), vehicle: saline) was 86 % of control.

In the case of `OCc1ccn2c1CCC2`, the T/C reads like this: under setting [6], 107 % of control; under setting [7], 109 % of control; (dose: 25.0 mg/kg/injection, schedule: Q01DX009 (ip), vehicle: water) 110 % of control; (dose: 50.0 mg/kg/injection, schedule: Q01DX009 (ip), vehicle: water) 115 % of control; (dose: 100.0 mg/kg/injection, schedule: Q01DX009 (ip), vehicle: water) 109 % of control.

With `COc1cc2c(c(OC(C)=O)c1OC(C)=O)-c1ccc(SC)c(=O)cc1C(NC(C)=O)CC2` (stereo unspecified), the T/C by setting is: (dose: 1.25 mg/kg/injection, schedule: Q01DX009 (ip), vehicle: Klucel (hydroxypropylcellulose) (HPC)) 110 % of control; (dose: 2.5 mg/kg/injection, schedule: Q01DX009 (ip), vehicle: Klucel (hydroxypropylcellulose) (HPC)) 105 % of control; (dose: 5.0 mg/kg/injection, schedule: Q01DX009 (ip), vehicle: Klucel (hydroxypropylcellulose) (HPC)) 93 % of control; (dose: 9.0 mg/kg/injection, schedule: Q01DX009 (ip), vehicle: Klucel (hydroxypropylcellulose) (HPC)) 100 % of control; (dose: 10.0 mg/kg/injection, schedule: Q01DX009 (ip), vehicle: Klucel (hydroxypropylcellulose) (HPC)) 105 % of control; (dose: 18.0 mg/kg/injection, schedule: Q01DX009 (ip), vehicle: Klucel (hydroxypropylcellulose) (HPC)) 89 % of control. Further, the T/C (dose: 36.0 mg/kg/injection, schedule: Q01DX009 (ip), vehicle: Klucel (hydroxypropylcellulose) (HPC)) was 100 % of control.

`Cn1c(SCC(=O)O)nnc1C1CCC(=O)N1Cc1ccccc1` (stereo unspecified): the T/C is 110 % of control under setting [3], 103 % of control under setting [4] and 98 % of control under setting [5].

As for `COc1ccc(CSC2=C(C#N)C(=O)NC3(CCCCC3)S2)cc1`, the T/C reads like this: under setting [8], 112 % of control; under setting [9], 95 % of control; under setting [10], 97 % of control.

As for `CCOC(=O)Nc1cc2c(cn1)[nH]c1ccccc12`, the T/C runs as follows: under setting [3], 105 % of control; under setting [4], 114 % of control; under setting [5], 112 % of control.

Consider `CC(C)(C)C(=O)OC/C=C\COC(=O)c1ccccc1`, for which the T/C is 101 % of control (dose: 25.0 mg/kg/injection, schedule: Q01DX009 (ip), vehicle: Klucel (hydroxypropylcellulose) (HPC)); 104 % of control and 95 % of control and 96 % of control (dose: 50.0 mg/kg/injection, schedule: Q01DX009 (ip), vehicle: Klucel (hydroxypropylcellulose) (HPC)); 103 % of control and 104 % of control and 122 % of control (dose: 100.0 mg/kg/injection, schedule: Q01DX009 (ip), vehicle: Klucel (hydroxypropylcellulose) (HPC)); 111 % of control (dose: 200.0 mg/kg/injection, schedule: Q01DX009 (ip), vehicle: Klucel (hydroxypropylcellulose) (HPC)).

On to `CCO/C=C1/N=C(c2ccc(Cl)cc2)OC1=O`, for which the T/C under setting [3] was 121 % of control.

Regarding `O=C1c2ccccc2C(=O)c2c(O)c(CBr)c(CBr)c(O)c21`, the T/C was 96 % of control (dose: 50.0 mg/kg/injection, schedule: Q01DX005 (ip), vehicle: saline with Tween-80); 104 % of control under setting [1]; 95 % of control under setting [2].

Regarding `CC1(NC(=O)N(CCCl)N=O)CCCC1`, the T/C is 104 % of control under setting [11]; 104 % of control under setting [8]; 100 % of control (dose: 50.0 mg/kg/injection, schedule: Q04DX003 (ip), vehicle: saline with Tween-80); 109 % of control under setting [9]; 100 % of control (dose: 100.0 mg/kg/injection, schedule: Q04DX003 (ip), vehicle: saline with Tween-80).

Regarding `CC(=O)C(CCCn1c(=O)c2c(ncn2C)n(C)c1=O)CCCn1c(=O)c2c(ncn2C)n(C)c1=O`, the T/C reads like this: (dose: 60.0 mg/kg/injection, schedule: Q01DX005 (ip), vehicle: Klucel (hydroxypropylcellulose) (HPC)) 102 % of control; (dose: 120.0 mg/kg/injection, schedule: Q01DX005 (ip), vehicle: Klucel (hydroxypropylcellulose) (HPC)) 99 % of control; (dose: 240.0 mg/kg/injection, schedule: Q01DX005 (ip), vehicle: Klucel (hydroxypropylcellulose) (HPC)) 104 % of control.

Consider `CCCCCCCCCCCCCCCCN1c2ccccc2C(C)(C)C12C=Cc1cccc([N+](=O)[O-])c1O2` (stereo unspecified), for which the T/C is 92 % of control under setting [8], 93 % of control under setting [9] and 88 % of control under setting [10].

On to `O=C1NCC2CCCCC12` (stereo unspecified), for which the T/C by setting is: under setting [12], 107 % of control; under setting [13], 99 % of control; (dose: 200.0 mg/kg/injection, schedule: Q01DX005 (ip), vehicle: Klucel (hydroxypropylcellulose) (HPC)) 100 % of control.

`CCN(CC)CCSSCCN(CC)CC.[Cl][Mn][Cl]`: the T/C is 114 % of control under setting [12] and 117 % of control under setting [13].

As for `CC1=C(O)COc2cc(C)ccc21`, the T/C is 102 % of control (dose: 100.0 mg/kg/injection, schedule: Q01DX001 (ip), vehicle: saline); 100 % of control (dose: 200.0 mg/kg/injection, schedule: Q01DX001 (ip), vehicle: saline); 100 % of control (dose: 400.0 mg/kg/injection, schedule: Q01DX001 (ip), vehicle: saline).

As for `CN(C)C=Nc1cc(Cl)c(Cl)cc1Cl`, the T/C is 108 % of control (dose: 12.5 mg/kg/injection, schedule: Q01DX009 (ip), vehicle: saline with Tween-80); 106 % of control under setting [11]; 106 % of control under setting [8].
